Test results reported in paper PMC7600309, “Completing the Enalaprilat Excretion Pathway—Renal Handling by the Proximal Tubule” (Pharmaceutics, 2020).
Where a name gives a salt, the structure may show the parent alone. Non-standard residues stand in square brackets, D forms with d. Residues, ends and D or L forms follow the SMILES beside them. Sar = CNCC(=O)O

Columns and labels:
[1] = target: T1, OAT2 (Homo sapiens, UniProt Q9Y694); assay: radiolabelled model substrate uptake vs control cells; format: cell-based
T1 construct: gene SLC22A7; NM_006672, baculovirus-transduced HEK293 cells
T1 sequence (Q9Y694 1-548): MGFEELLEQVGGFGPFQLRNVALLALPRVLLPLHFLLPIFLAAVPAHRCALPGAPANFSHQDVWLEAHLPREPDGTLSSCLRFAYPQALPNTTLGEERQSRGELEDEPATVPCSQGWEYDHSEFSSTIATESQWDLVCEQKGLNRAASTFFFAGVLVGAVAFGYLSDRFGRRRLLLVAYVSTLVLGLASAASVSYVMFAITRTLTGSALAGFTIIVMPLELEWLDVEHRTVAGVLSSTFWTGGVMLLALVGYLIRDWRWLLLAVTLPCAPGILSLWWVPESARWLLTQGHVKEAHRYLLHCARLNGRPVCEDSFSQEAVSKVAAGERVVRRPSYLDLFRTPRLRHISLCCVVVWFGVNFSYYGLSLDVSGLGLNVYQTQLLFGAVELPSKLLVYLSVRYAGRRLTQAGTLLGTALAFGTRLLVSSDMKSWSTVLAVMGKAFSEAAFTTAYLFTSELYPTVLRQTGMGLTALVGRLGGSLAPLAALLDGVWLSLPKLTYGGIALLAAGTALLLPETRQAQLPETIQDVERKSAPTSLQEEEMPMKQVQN

[2] = target: T2, OAT3 (Homo sapiens, UniProt Q8TCC7); assay: inhibition of [3H]-E1S uptake (Ki); LC-MS/MS uptake in OAT3-HEK293 cells (Km […]); format: cell-based
T2 construct: gene SLC22A8; NM_004254.3, baculovirus-transduced HEK293 cells
T2 sequence (Q8TCC7 1-542): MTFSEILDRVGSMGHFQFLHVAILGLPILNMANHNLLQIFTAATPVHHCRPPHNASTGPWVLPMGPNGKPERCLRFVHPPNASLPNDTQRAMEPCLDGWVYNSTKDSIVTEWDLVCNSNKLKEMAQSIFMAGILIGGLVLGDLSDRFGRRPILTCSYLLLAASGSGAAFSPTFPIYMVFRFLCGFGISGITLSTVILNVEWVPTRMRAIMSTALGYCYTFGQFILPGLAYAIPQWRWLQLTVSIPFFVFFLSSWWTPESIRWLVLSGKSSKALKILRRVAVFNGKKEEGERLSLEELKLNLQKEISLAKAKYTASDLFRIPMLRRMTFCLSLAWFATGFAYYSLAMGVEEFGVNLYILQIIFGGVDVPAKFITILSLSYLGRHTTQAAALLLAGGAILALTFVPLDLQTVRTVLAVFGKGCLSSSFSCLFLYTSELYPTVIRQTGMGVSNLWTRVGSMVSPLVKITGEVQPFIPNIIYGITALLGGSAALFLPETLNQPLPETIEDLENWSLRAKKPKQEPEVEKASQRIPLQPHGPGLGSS

[3] = target: T3, OAT4 (Homo sapiens, UniProt Q9NSA0)
T3 construct: gene SLC22A11

[4] = target: T4, URAT1 (Homo sapiens, UniProt Q96S37); assay: model substrate uptake vs control cells; format: cell-based
T4 construct: gene SLC22A12; NM_144585.3, baculovirus-transduced HEK293 cells
T4 sequence (Q96S37 1-553): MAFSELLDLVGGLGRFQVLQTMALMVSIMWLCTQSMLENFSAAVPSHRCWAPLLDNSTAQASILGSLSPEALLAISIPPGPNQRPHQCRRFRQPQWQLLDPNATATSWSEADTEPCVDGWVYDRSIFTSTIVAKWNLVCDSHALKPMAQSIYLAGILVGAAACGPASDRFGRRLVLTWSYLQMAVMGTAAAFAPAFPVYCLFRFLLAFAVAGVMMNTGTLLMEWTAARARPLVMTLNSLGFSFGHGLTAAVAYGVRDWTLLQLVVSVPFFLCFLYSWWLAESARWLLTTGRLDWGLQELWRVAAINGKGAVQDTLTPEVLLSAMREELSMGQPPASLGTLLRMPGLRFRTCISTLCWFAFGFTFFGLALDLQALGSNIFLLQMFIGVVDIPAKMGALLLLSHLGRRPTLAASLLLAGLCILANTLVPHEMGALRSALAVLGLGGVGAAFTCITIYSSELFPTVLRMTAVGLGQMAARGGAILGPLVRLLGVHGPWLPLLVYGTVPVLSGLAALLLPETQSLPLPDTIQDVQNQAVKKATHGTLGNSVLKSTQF

[5] = target: T5, OCTN1 (Homo sapiens, UniProt Q9H015); assay: radiolabelled model substrate uptake vs control cells; format: cell-based
T5 construct: gene SLC22A4; NM_003059.2, baculovirus-transduced HEK293 cells
T5 sequence (Q9H015 1-551): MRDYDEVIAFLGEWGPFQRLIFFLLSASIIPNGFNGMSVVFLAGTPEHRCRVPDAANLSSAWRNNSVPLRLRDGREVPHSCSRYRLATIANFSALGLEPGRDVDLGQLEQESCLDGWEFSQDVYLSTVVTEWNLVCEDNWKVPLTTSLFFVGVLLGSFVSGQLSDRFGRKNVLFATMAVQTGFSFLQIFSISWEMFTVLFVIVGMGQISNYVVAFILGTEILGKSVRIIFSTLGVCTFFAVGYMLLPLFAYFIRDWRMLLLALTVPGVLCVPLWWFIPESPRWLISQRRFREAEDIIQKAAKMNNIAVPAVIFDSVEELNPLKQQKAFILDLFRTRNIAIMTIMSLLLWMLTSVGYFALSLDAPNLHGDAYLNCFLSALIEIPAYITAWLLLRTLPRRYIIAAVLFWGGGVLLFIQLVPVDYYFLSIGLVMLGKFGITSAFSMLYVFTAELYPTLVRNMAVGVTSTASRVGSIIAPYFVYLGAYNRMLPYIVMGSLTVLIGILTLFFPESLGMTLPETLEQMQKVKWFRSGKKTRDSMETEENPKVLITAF

[6] = target: T6, OCTN2 (Homo sapiens, UniProt O76082); assay: as above; format: cell-based
T6 construct: gene SLC22A5; NM_003060.3, baculovirus-transduced HEK293 cells
T6 sequence (O76082 1-557): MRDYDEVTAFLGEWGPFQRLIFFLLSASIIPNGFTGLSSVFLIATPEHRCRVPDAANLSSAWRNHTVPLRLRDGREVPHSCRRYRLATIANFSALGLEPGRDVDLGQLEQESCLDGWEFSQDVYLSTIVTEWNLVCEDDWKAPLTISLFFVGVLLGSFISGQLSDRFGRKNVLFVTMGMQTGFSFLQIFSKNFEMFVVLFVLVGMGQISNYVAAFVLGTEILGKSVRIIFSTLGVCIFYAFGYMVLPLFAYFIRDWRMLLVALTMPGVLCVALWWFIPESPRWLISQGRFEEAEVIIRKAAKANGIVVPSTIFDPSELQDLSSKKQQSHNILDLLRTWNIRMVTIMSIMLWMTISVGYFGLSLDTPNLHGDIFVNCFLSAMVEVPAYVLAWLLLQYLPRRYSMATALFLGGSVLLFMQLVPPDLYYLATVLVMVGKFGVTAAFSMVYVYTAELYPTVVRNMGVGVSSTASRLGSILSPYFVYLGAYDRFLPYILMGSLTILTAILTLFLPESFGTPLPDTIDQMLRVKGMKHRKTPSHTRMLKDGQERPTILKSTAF

[7] = target: T2, OAT3; assay: radiolabelled model substrate uptake ([…]); format: cell-based
[8] = target: T7, PEPT1 (Homo sapiens, UniProt P46059); assay: radiolabelled model substrate uptake vs control cells; format: cell-based
T7 construct: gene SLC15A1; NM_005073.3, baculovirus-transduced HEK293 cells
T7 sequence (P46059 1-708): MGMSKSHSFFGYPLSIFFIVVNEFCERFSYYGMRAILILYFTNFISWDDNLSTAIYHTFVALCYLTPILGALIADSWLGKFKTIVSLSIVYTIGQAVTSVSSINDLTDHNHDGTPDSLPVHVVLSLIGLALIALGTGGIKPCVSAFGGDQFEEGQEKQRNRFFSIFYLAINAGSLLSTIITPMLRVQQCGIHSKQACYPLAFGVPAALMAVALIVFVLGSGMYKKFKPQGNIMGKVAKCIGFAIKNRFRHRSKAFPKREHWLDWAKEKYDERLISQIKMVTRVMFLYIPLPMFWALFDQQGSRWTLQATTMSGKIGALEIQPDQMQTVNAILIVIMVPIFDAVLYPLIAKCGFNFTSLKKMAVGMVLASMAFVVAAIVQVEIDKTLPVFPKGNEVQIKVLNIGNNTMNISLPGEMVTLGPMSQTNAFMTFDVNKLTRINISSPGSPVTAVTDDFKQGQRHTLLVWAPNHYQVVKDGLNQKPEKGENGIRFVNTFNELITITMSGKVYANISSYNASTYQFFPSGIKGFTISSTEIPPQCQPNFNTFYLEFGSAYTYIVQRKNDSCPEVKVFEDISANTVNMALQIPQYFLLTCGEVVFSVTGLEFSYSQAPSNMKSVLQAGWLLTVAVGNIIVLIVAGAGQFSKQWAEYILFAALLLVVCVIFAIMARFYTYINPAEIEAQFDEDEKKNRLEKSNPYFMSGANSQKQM

[9] = target: T8, PEPT2 (Homo sapiens, UniProt Q16348); assay: as above; format: cell-based
T8 construct: gene SLC15A2; NM_021082.3, baculovirus-transduced HEK293 cells
T8 sequence (Q16348 1-729): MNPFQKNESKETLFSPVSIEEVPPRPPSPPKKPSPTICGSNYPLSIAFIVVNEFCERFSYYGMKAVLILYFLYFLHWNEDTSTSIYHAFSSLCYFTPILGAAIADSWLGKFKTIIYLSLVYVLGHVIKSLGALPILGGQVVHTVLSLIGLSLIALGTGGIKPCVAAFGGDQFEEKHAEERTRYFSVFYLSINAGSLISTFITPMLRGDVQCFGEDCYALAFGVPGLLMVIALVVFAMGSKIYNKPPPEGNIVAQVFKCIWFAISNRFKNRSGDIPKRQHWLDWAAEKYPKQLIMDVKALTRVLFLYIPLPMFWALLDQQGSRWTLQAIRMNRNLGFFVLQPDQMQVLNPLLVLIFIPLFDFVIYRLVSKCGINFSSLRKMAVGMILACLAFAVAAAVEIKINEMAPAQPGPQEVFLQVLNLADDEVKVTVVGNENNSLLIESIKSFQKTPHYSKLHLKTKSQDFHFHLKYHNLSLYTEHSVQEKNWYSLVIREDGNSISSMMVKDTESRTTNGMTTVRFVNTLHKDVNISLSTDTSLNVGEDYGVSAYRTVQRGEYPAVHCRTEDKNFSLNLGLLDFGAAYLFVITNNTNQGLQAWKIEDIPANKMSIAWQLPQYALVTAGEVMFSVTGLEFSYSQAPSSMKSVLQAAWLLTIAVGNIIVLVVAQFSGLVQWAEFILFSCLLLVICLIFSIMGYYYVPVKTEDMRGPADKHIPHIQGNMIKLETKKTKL

T3 sequence (Q9NSA0 whole entry): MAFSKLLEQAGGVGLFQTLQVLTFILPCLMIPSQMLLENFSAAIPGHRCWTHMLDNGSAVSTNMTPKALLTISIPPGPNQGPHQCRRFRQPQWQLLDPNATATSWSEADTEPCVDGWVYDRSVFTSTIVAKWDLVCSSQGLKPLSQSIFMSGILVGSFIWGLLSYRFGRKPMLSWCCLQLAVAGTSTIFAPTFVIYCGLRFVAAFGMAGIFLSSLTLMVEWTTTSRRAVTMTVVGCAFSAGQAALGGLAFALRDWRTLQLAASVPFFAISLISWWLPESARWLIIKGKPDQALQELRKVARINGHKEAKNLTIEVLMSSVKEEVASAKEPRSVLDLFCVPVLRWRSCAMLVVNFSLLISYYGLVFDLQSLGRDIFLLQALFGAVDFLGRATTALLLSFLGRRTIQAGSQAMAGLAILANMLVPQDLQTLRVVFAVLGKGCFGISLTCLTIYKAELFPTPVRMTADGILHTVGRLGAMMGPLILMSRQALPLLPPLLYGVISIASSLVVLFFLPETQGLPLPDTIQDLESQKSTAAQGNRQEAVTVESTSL

Nc1ccc(C(=O)NCC(=O)O)cc1 [[^14C]-para-aminohippuric acid]
radiolabelled model substrate uptake vs control cells [1]: OAT2, OAT4, PEPT1, PEPT2, URAT1, OCTN1, and OCTN2 all showed a significant transport ratio compared to control cells

C[C@H](N[C@@H](CCc1ccccc1)C(=O)O)C(=O)N1CCC[C@H]1C(=O)O [enalaprilat]
Ki [2]: 134 µM | Km [3]: > 1000 µM

O=c1[nH]c(=O)c2[nH]c(=O)[nH]c2[nH]1 [Urate]
model substrate uptake vs control cells [4]: OAT2, OAT4, PEPT1, PEPT2, URAT1, OCTN1, and OCTN2 all showed a significant transport ratio compared to control cells

C[N+](C)(C)C[C@H](O)CC(=O)[O-] [[^14C]-Carnitine]
radiolabelled model substrate uptake vs control cells [5]: OAT2, OAT4, PEPT1, PEPT2, URAT1, OCTN1, and OCTN2 all showed a significant transport ratio compared to control cells | radiolabelled model substrate uptake vs control cells [6]: OAT2, OAT4, PEPT1, PEPT2, URAT1, OCTN1, and OCTN2 all showed a significant transport ratio compared to control cells

C[C@]12CC[C@@H]3c4ccc(OS(=O)(=O)O)cc4CC[C@H]3[C@@H]1CCC2=O [[^3H]-Estrone sulfate]
radiolabelled model substrate uptake (20 nM) [7]: Transport of [^3H]-E1S by OAT3 was determined in the presence of increasing enalaprilat concentrations

CN(CC(=O)O)C(=O)CN [[^3H]-Glycyl-sarcosine] (H-Gly-[Sar]-OH)
radiolabelled model substrate uptake vs control cells [8]: OAT2, OAT4, PEPT1, PEPT2, URAT1, OCTN1, and OCTN2 all showed a significant transport ratio compared to control cells | radiolabelled model substrate uptake vs control cells [9]: OAT2, OAT4, PEPT1, PEPT2, URAT1, OCTN1, and OCTN2 all showed a significant transport ratio compared to control cells
